Measurements from patent US10301305B2 (priority 2014, dated 2019).
Structures can show the parent of a compound that is named as a salt.

Assays:
Assay type in all cases: biochemical
S. aureus DltA = S. aureus DltA (Staphylococcus aureus (strain NCTC 8325 / PS 47), UniProt Q2FZW6); test: in vitro DltA activity assay (luminescence), S. aureus DltA; conditions: recombinant DltA, 30 min pre-incubation, 0.5 mM D-Alanine, 0.5-5 μM ATP; read-out: S. aureus DltA IC50
Procedure: (§1) The effect of the compounds of the invention on DltA enzymes has been based on the measure of their inhibition of DltA activity in vitro. To this end, recombinant proteins DltA were expressed and purified after cloning of the genes of S. aureus, E. faecalis, E. faecium and S. agalactiae as described thereafter. The capacity of the compounds of the invention to inhibit DltA enzymatic activity was assessed using the DltA assays as described below:
(§2) The dltA gene was amplified from chromosomal DNA of S. aureus, E. faecalis, E. faecium and S. agalactiae and introduced into E. coli BL21 (Invitrogen, Carlsbad, Calif.) following manufacturer's instruction. Bacteria were grown at 37° C. under aerobic conditions and isopropyl-beta-D-thiogalactopyranoside (IPTG) was added to 0.5-1 mM when OD600 of the bacterial culture had reached 0.5. After a further incubation for 3 hours, cells were harvested by centrifugation. Purification of the recombinant DltA protein was performed by affinity chromatography on nickel-nitrilotriacetic acid (Ni-NTA) column following manufacturer's instructions (Qiagen). Fractions containing recombinant DltA protein were adjusted to 50% glycerol and stored at −20° C. until use.
(§3) The binding potency of the inhibitors against DltA enzyme was assessed by IC50 determination in an in vitro DltA activity assay. The assay buffer “AB” contained 50 mM Hepes pH8.0, 10 mM MgCl2, 50 mM KCl, 0.012% Triton-X100, 10 mM DTT and 100 nM Myelin-basic protein. The following components were added in a white polystyrene Costar plate up to a final volume of 30 μL: 3 μL DMSO, or inhibitor dissolved in DMSO and 27 μL DltA enzyme in AB. After 30 min of pre-incubation at room temperature, 30 μL of Substrates mix in AB were added in each well to a final volume of 60 μL. This reaction mixture was then composed of DltA (produced in house from S. aureus, E. faecalis, E. faecium and S. agalactiae), 0.5 mM D-Alanine (Sigma), 0.5-5 μM ATP (Sigma) and 0.05 u/ml inorganic pyrophosphatase (Sigma) in assay buffer. After typically 1-2 hours of incubation at room temperature (conversion rate around 30%), 30 μL of the revelation mix were added to a final volume of 90 μL, including the following constituents at the respective final concentrations: 10000 u/ml luciferase (Sigma), 30 μM D-luciferin (Sigma), 100 μM N-acetylcysteamine (Aldrich). Luminescence intensity was immediately measured on a Fluostar Optima (BMG) (excitation 360 nm, emission 520 nm) and converted into inhibition percentages. For IC50 determinations (Inhibitory Concentration 50%) the inhibitor was added at 6 to 10 different concentrations and the related inhibitions were fitted to a classical Langmuir equilibrium model using XLFIT (IDBS).
(§4) For compounds interfering with the luminescent signal (quenching), the same experiment without DltA enzyme was performed to allow quenching determination and correction.

S. Agalactiae DltA = S. Agalactiae DltA (Streptococcus agalactiae serotype III (strain NEM316), UniProt Q8VM67); test: in vitro DltA activity assay (luminescence), S. agalactiae DltA; conditions: recombinant DltA, 30 min pre-incubation, 0.5 mM D-Alanine, 0.5-5 μM ATP; read-out: S. Agalactiae DltA IC50
Procedure: as §1, §2, §3, §4

E. feacalis DltA = E. feacalis DltA (Enterococcus faecalis, UniProt Q830N0); test: in vitro DltA activity assay (luminescence), E. faecalis DltA; conditions: recombinant DltA, 30 min pre-incubation, 0.5 mM D-Alanine, 0.5-5 μM ATP; read-out: E. feacalis DltA IC50
Sequence of E. feacalis DltA (Q830N0 1-506): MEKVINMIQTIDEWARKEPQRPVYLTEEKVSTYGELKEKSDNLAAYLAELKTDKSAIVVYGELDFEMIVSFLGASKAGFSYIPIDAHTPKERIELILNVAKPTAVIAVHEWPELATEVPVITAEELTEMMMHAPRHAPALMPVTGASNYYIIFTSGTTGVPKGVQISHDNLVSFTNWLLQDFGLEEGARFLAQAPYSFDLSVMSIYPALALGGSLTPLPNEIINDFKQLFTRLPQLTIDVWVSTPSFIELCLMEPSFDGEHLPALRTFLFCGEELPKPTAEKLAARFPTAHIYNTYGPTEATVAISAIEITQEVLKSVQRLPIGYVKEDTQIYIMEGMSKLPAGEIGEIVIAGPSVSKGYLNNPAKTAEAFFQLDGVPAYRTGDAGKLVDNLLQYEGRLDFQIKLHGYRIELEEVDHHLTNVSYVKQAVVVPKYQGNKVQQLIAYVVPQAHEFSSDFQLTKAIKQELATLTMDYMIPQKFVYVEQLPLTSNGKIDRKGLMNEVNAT
Procedure: as §1, §2, §3, §4

E. feacium DltA = E. feacium DltA (Enterococcus faecium, UniProt Q3XZT7); test: in vitro DltA activity assay (luminescence), E. faecium DltA; conditions: recombinant DltA, 30 min pre-incubation, 0.5 mM D-Alanine, 0.5-5 μM ATP; read-out: E. feacium DltA IC50
Sequence of E. feacium DltA (Q3XZT7 1-504): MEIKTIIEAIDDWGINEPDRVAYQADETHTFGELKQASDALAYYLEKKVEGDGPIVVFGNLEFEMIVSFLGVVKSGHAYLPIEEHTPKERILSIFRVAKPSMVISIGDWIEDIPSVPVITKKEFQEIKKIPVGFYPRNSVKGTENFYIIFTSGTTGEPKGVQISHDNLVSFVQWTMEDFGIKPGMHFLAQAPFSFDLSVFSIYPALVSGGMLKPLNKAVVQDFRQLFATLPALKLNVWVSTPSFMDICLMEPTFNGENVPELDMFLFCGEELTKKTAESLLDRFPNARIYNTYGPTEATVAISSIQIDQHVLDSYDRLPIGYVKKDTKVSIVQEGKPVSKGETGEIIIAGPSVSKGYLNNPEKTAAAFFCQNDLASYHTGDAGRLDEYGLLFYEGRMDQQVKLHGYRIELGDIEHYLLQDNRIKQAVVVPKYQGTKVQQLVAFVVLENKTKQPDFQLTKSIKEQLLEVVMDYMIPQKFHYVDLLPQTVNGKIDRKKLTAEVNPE
Procedure: as §1, §2, §3, §4

Row | SMILES | IC50 (S. aureus DltA) | IC50 (S. Agalactiae DltA) | IC50 (E. feacalis DltA) | IC50 (E. feacium DltA)
1 | C[C@H]1CCCC(n2cnc3cc(-c4cc(N(C)CCN(C)C)c(C(N)=O)c5[nH]cnc45)ccc32)C1 (mixture of isomers) [Example 136] | 5.7 nM | 360 nM | – | –
2 | OC[C@H]1CCN(c2cc(-c3ccc4c(c3)ncn4C3CCCCC3)c3nc[nH]c3n2)C[C@@H]1O [Example 2, (3R,4R)-1-[7-(1-Cyclohexyl-1H-benzimidazol-5-yl)-3H-imidazo[4,5-b]pyridin-5-yl]-4-hydroxymethyl-piperidin-3-ol] | 66 nM | 500 nM | 18 nM | 86 nM
3 | OCC1CCN(c2cc(-c3ccc4c(c3)ncn4C3CCCCC3)c3nc[nH]c3n2)CC1 [Example 3, {1-[7-(1-Cyclohexyl-1H-benzimidazol-5-yl)-3H-imidazo[4,5-b]pyridin-5-yl]-piperidin-4-yl}-methanol] | 200 nM | 1400 nM | 52 nM | 100 nM
4 | OCCNc1cc(-c2ccc3c(c2)ncn3C2CCCCC2)c2nc[nH]c2n1 [Example 4, 2-[7-(1-Cyclohexyl-1H-benzimidazol-5-yl)-3H-imidazo[4,5-b]pyridin-5-ylamino]-ethanol] | 520 nM | 3100 nM | 380 nM | 2200 nM
5 | OCC1(CO)CCN(c2cc(-c3ccc4c(c3)ncn4C3CCCCC3)c3nc[nH]c3n2)CC1 [Example 6, {1-[7-(1-Cyclohexyl-1H-benzimidazol-5-yl)-3H-imidazo[4,5-b]pyridin-5-yl]-4-hydroxymethyl-piperidin-4-yl}-methanol] | 11 nM | 180 nM | 18 nM | 29 nM
6 | OCCC1CCN(c2cc(-c3ccc4c(c3)ncn4C3CCCCC3)c3nc[nH]c3n2)C1 (stereo not shown) [Example 10, 2-{1-[7-(1-Cyclohexyl-1H-benzimidazol-5-yl)-3H-imidazo[4,5-b]pyridin-5-yl]-pyrrolidin-3-yl}-ethanol] | 160 nM | 3800 nM | 72 nM | 120 nM
7 | c1nc2c(-c3ccc4c(c3)ncn4C3CCCCC3)cc(N3CC4CNCC4C3)nc2[nH]1 (stereo not shown) [Example 11, 7-(1-Cyclohexyl-1H-benzimidazol-5-yl)-5-(hexahydro-pyrrolo[3,4-c]pyrrol-2-yl)-3H-imidazo[4,5-b]pyridine] | 1.4 nM | 260 nM | 19 nM | 30 nM
8 | OC[C@H]1CCN(c2cc3[nH]cnc3c(-c3ccc4c(c3)ncn4C3CCCCC3)n2)C[C@@H]1O [Example 19, (3R,4R)-1-[4-(1-Cyclohexyl-1H-benzimidazol-5-yl)-1H-imidazo[4,5-c]pyridin-6-yl]-4-hydroxymethyl-piperidin-3-ol] | 33 nM | 1900 nM | 460 nM | 1800 nM
9 | OCC1(CO)CCN(c2cc3[nH]cnc3c(-c3ccc4c(c3)ncn4C3CCCCC3)n2)CC1 [Example 20, {1-[4-(1-Cyclohexyl-1H-benzimidazol-5-yl)-1H-imidazo[4,5-c]pyridin-6-yl]-4-hydroxymethyl-piperidin-4-yl}-methanol] | 12 nM | 290 nM | 56 nM | 170 nM
10 | c1nc2c(-c3ccc4c(c3)ncn4C3CCCCC3)nc(N3CC4CNCC4C3)cc2[nH]1 (stereo not shown) [Example 24, 4-(1-Cyclohexyl-1H-benzimidazol-5-yl)-6-(hexahydro-pyrrolo[3,4-c]pyrrol-2-yl)-1H-imidazo[4,5-c]pyridine] | 38 nM | 5200 nM | 570 nM | 3700 nM
11 | OCC1(CO)CCN(c2cc(-c3ccc4c(c3)ncn4C3CCCCC3)c3nc[nH]c3c2)CC1 [Example 34, [1-(1′-Cyclohexyl-1H,1′H-[4,5′]bibenzimidazolyl-6-yl)-4-hydroxymethyl-piperidin-4-yl]-methanol] | 110 nM | 380 nM | 79 nM | 170 nM
12 | CCn1cnc2cc(-c3cc(OCCN(C)C)c(C(N)=O)c4[nH]cnc34)ccc21 [Example 198, 6-(2-Dimethylamino-ethoxy)-1′-ethyl-1H,1′H-[4,5′]]bibenzimidazolyl-7-carboxamide methanesulfonic acid salt] | – | 1400 nM | – | –
